Experimental findings from patent publication US9492471B2, “Methods of treating a disease or disorder associated with Bruton'S Tyrosine Kinase” (Celgene Avilomics Research, Inc., priority 2013, dated 2016) are described below.

Experiment in all cases: HotSpot kinase profiling
Type in all cases: biochemical

One assay addresses T1, LIMK2 (Homo sapiens, UniProt P53671).
T1 construct: purchased Reaction Biology Corp
A digest of the protocol:
(§1)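 Radio-isotope P81 filtration format. Substrate + required cofactors in reaction buffer, kinase added, 2 h RT. Stop, wash with 0.1% phosphoric acid, detect. % inhibition vs DMSO; mean of duplicates where repeated.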

The next assay addresses T2, EPHA1 (Homo sapiens, UniProt P21709).
T2 construct: purchased Reaction Biology Corp
T2 sequence (P21709 26-976): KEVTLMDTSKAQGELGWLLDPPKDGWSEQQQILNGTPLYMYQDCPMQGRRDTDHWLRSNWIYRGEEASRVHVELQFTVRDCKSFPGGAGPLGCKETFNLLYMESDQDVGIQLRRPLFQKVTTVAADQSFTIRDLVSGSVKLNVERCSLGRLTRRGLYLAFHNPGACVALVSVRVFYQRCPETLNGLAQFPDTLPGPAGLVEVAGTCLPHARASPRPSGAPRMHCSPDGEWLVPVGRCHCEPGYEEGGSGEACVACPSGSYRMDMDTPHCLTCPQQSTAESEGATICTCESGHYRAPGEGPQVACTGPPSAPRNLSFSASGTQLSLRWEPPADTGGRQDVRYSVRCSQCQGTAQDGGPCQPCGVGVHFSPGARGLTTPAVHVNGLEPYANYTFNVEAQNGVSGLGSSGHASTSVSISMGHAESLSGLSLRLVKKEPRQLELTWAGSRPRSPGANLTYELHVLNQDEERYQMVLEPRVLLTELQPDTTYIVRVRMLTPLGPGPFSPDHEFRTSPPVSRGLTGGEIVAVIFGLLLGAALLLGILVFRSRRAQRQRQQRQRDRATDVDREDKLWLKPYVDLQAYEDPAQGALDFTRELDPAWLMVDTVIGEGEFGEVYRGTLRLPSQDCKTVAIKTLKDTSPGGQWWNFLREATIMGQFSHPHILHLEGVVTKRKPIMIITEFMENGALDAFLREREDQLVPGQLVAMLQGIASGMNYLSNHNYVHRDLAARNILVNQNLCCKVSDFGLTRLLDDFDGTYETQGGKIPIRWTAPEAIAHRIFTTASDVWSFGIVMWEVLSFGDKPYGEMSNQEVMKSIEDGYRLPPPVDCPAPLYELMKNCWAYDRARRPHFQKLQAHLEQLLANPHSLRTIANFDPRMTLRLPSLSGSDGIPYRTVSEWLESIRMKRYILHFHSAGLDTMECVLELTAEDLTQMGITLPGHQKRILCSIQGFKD
A digest of the protocol: as §1

Another assay deals with T3, MARK2/PAR-1Ba (Homo sapiens, UniProt Q7KZI7).
T3 construct: purchased Reaction Biology Corp
A digest of the protocol: as §1

Another assay has as its target T4, LATS2 (Homo sapiens, UniProt Q9NRM7).
T4 construct: purchased Reaction Biology Corp
T4 sequence (Q9NRM7 1-1088): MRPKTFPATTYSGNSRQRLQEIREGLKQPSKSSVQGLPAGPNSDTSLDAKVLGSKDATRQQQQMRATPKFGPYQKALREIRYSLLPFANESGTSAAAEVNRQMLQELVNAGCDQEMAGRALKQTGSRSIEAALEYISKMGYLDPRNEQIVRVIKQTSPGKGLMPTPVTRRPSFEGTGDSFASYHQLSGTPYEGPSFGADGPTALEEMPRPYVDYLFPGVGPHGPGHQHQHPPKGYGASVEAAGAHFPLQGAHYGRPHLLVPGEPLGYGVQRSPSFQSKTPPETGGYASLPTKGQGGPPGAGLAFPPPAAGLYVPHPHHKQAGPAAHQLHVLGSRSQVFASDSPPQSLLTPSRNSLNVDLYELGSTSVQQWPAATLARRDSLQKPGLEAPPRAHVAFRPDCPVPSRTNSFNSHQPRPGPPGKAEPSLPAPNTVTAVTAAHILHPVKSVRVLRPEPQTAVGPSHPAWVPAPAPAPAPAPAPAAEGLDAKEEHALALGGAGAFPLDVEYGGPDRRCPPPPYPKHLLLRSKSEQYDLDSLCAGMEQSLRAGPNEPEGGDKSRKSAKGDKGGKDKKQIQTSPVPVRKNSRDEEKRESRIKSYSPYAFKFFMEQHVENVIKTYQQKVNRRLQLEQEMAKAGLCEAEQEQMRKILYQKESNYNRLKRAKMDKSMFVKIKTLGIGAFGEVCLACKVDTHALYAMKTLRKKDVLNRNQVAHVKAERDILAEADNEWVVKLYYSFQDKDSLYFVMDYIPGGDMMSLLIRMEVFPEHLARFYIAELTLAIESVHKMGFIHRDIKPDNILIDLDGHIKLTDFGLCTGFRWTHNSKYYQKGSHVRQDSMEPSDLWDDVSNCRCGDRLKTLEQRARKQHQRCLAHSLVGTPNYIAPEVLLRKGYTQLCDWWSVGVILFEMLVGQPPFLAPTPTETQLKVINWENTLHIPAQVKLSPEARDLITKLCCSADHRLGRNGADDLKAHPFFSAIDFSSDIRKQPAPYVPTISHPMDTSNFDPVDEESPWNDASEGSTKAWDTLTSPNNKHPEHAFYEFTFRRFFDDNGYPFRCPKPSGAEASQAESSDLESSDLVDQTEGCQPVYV
A digest of the protocol:
as §1

The target in another assay is T5, PKA (Homo sapiens, UniProt P17612).
T5 construct: purchased Reaction Biology Corp
A digest of the protocol: as §1

The mark [1] stands for this setting: read-out: % Enzyme Activity (relative to DMSO controls) Run 1.
Where [2] appears, read: read-out: % Enzyme Activity (relative to DMSO controls) Run 2.

Read-outs that look alike come from different tables or passages of the source.

T3 sequence (Q7KZI7 1-725 isoform Q7KZI7-4): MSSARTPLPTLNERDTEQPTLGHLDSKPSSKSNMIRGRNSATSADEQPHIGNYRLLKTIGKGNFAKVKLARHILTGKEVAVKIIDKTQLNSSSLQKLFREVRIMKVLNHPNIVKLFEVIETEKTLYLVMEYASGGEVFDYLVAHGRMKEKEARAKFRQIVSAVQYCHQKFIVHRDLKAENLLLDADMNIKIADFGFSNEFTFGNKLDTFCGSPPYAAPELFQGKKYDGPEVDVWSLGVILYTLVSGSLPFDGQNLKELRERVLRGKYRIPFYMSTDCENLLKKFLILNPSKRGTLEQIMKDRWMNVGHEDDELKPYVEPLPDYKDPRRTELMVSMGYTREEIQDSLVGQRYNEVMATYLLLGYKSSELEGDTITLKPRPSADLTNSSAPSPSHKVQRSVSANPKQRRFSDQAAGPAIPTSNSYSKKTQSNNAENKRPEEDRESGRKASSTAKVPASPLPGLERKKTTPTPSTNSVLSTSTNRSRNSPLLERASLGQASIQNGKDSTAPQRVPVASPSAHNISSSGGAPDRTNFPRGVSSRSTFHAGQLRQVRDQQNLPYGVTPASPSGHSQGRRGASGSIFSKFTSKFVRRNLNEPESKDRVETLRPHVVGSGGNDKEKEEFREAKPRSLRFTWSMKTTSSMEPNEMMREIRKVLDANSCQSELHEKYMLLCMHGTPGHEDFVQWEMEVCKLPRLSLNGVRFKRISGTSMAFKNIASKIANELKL
T1 sequence (P53671 whole entry): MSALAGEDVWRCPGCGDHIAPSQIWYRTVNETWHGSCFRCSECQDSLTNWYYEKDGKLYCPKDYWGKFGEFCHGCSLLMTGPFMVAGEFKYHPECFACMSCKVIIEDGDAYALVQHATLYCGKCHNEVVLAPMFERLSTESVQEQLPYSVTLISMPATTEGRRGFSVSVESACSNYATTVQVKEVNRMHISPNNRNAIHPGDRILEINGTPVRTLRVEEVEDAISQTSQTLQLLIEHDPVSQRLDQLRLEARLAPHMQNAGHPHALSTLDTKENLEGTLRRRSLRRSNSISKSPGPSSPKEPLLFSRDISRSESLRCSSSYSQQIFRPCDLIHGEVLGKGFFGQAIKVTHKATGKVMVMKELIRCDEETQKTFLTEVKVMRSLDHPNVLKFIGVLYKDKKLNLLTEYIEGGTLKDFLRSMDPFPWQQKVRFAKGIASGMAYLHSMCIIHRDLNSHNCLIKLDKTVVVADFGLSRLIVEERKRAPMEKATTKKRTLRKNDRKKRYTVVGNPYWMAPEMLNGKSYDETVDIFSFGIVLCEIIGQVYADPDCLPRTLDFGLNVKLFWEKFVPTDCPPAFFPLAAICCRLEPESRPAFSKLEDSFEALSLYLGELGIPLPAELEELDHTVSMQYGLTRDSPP

For the compound `C=CC(=O)Nc1cccc(Nc2nc(Nc3ccc(OCCOC)c(F)c3)ncc2F)c1` [Compound 2], the inhibition at 3 µM at LIMK2 was -0.86%; against EPHA1 it was -0.24%; against MARK2/PAR-1Ba it was 1.3%; at LATS2, 10.2%; on PKA, 14.5%. The remaining activity at 3 µM turned out to be 101% at LIMK2 (setting [1]); 101% at LIMK2 (setting [2]); 99.5% at EPHA1 (setting [1]); 101% on EPHA1 (setting [2]); 99.6% on MARK2/PAR-1Ba (setting [1]); 97.8% at MARK2/PAR-1Ba (setting [2]). Besides, the remaining activity at 3 µM at LATS2 (setting [1]) was 88.4%; on LATS2 (setting [2]) it was 91.2%; on PKA (setting [1]), 85.8%; at PKA (setting [2]), 85.1%.
